Reference: paper PMC3914206

Tests used:
Type in all cases: binding
Conditions in all cases: Compound Concentration 10 µM
panel of 442 kinases [1] = biological target: T1, panel of 442 kinases (Homo sapiens, UniProt P49759)
T1 construct: purchased KINOMEscan
Text: (§1) We assessed the selectivity of members of this scaffold using the KINOMEscan methodology across a near comprehensive panel of 442 kinases [[18,27]].

panel of 442 kinases [2] = biological target: T2, panel of 442 kinases (Homo sapiens, UniProt Q13976)
T2 construct: purchased KINOMEscan
T2 sequence (Q13976 1-671): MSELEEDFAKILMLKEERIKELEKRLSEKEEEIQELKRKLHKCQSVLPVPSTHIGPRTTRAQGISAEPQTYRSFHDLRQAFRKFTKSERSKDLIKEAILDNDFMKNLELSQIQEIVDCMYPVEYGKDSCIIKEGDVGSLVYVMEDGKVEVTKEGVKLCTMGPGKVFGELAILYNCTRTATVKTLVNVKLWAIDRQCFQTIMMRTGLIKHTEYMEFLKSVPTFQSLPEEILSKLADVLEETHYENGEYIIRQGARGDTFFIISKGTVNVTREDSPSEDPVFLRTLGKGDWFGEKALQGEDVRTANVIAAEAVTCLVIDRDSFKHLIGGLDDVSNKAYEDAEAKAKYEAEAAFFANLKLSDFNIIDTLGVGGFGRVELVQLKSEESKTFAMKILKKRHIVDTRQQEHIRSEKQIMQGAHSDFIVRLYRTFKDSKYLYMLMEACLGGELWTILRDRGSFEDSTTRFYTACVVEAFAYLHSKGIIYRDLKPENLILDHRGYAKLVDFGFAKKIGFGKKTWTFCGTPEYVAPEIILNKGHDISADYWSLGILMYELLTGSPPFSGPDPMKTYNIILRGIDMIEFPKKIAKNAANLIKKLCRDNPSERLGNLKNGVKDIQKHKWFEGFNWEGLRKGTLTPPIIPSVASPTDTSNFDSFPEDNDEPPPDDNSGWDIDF
Text: as §1

panel of 442 kinases [3] = biological target: T3, panel of 442 kinases (Homo sapiens, UniProt Q8IY84)
T3 construct: purchased KINOMEscan
T3 sequence (Q8IY84 whole entry): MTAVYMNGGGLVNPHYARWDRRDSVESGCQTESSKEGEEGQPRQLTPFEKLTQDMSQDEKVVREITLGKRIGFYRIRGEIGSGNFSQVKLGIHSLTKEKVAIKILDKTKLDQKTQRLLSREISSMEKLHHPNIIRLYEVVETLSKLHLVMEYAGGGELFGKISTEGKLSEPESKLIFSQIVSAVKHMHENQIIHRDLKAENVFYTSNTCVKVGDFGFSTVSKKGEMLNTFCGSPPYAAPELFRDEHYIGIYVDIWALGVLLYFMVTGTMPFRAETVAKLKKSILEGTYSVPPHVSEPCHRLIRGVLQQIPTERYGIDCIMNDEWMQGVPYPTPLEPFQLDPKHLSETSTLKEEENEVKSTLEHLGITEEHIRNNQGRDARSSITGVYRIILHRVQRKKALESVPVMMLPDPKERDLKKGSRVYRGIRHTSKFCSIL
Text: as §1

T1 sequence (P49759 whole entry): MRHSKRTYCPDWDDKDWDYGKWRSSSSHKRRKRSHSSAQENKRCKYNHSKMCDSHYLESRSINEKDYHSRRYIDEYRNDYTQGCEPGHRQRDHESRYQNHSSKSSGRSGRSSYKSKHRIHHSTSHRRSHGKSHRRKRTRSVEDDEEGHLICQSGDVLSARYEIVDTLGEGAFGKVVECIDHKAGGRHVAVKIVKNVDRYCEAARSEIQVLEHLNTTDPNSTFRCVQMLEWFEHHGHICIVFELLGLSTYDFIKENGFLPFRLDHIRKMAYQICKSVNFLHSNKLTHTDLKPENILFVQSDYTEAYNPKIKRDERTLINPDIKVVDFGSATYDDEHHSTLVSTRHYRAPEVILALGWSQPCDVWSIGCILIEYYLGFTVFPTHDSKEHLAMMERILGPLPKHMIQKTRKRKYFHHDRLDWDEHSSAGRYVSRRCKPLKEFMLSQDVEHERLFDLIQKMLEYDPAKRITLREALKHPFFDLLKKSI

Row | SMILES | KINOMEscan: CLK1 (panel of 442 kinases [1]) | KINOMEscan: PRKG1 (panel of 442 kinases [2]) | KINOMEscan: NIM1 (panel of 442 kinases [3])
1 | COc1cc(C(=O)N2CCC(N3CCN(C)CC3)CC2)ccc1Nc1ncc2c(n1)N(C1CCCC1)c1ccccc1C(=O)N2C [Compound 25, 11-cyclopentyl-2-((2-methoxy-4-(4-(4-methylpiperazin-1-yl)piperidine-1-carbonyl)phenyl)amino)-5-methyl-5H-benzo[e]pyrimido[5,4-b][1,4]diazepin-6(11H)-one] | 100 | 100 | 100
2 | CCOc1cc(C(=O)N2CCC(N3CCN(C)CC3)CC2)ccc1Nc1ncc2c(n1)N(C1CCCC1)c1ccccc1C(=O)N2C [Compound 26] | 100 | 100 | 100
3 | COc1cc(C(=O)N2CCC(N3CCN(C)CC3)CC2)ccc1Nc1ncc2c(n1)N1CCc3cccc(c31)C(=O)N2C [Compound 24] | 11 |  | 
4 | COc1cc(C(=O)N2CCC(N3CCN(C)CC3)CC2)ccc1Nc1ncc2c(n1)N(C)c1ccccc1C(=O)N2C [15 (LRRK2-IN-1)] | 28 | 98 | 100
